Reference: patent publication US10519504B2, “Methods for treatment of oncological disorders using epimetabolic shifters, multidimensional intracellular molecules, or environmental influencers” (Berg LLC, priority 2009, dated 2019)

Tests used:
Hif1 alpha = test: Western blot, Hif1 alpha levels; assay type: cell-based, human
Protocol: The Actin blots were stripped by incubating for 30 minutes with methanol, followed by two 10 minute washes with TBS-T, then 30 minutes of incubation with Stripping buffer at 50 deg C., and followed by two washes with 100 ml or more of TBS-T for 30′ each. The blots were scanned in laser scanner to check for complete stripping. The blots were activated with methanol for 5 seconds, washed with water for 5 minutes, and TBST for 15 minutes. The blots were blocked for 1 hour with 5% blocking reagent in TBS-T at room temperature and then washed 3 times with TBS-T (1X−15′; 2X5′ each) and probed with the primary antibody for Hif 1 alpha, Caspase 3 or PDHB in 5% BSA (at 1:200 by incubation overnight at 4 deg C. with gentle shaking. The primary antibody for Hif 1 alpha (Abcam ab2185; antirabbit) was at 1:500 dilution in 5% BSA. The primary antibody for Caspase 3 (Santacruz sc7272; antirabbit) was at 1:200 dilution in 5% BSA. The primary antibody for Pyruvate Dehydrogenase beta (PDHB) (Novus Biologicals H00005162-M03; antimouse) was at 1:500 dilution in 5% BSA. After incubation with primary antibodies, the membranes were washed 3 times with TBS-T (1X−15′; 2X5′ each) and probed with the secondary antibody (PDHB antimouse; Hif 1a and Caspase 3 antirabbit; 1:10,000 dilution) for 1 h at room temperature. […]

[1] = tested on: Lactate Dehydrogenase (LDH); test: Western blot, Lactate Dehydrogenase levels; assay type: cell-based, human
Protocol: The samples were processed and run on a 4-12% Bis-Tris Novex NuPAGE gel as described above. The gels were run, transferred and stained essentially as described above.
After transfer each blot was dried for 15-20 minutes, activated with methanol for 5 seconds, washed with water for 5 minutes, and TBST for 15 minutes. The blots were blocked for 1 hour with 5% blocking reagent in TBS-T at room temperature and then washed 3 times with TBS-T (1X−15′; 2X5′ each) and probed with the primary antibody for Lactate Dehydrogenase (abcam ab2101; polyclonal) in 5% BSA (at 1:1000 dilutions) by incubation overnight at 4 deg C. with shaking. After the overnight incubation with primary antibody for Lactate Dehydrogenase, the blots were washed 3 times with TBS-T (1X−15′; 2X5′ each) and probed with the secondary antibody (rabbit antigoat; 1:10,000 dilution) for 1 h at room temperature. After 1 h of incubation with secondary antibodies, the blots were washed 3 times with TBS-T (1X−15′; 2X5′ each) and then incubated with ECF reagent for 5 mins and then each blot scanned with 5100 Fuji Laser scanner at 25 uM resolution, 16 bit, green laser, at 400V and at 500 V. […]
The levels of LDH and PDH were determined by probing the blots successively with primary antibodies for LDH and PDH, essentially as described above. […]

`COC1=C(OC)C(=O)C(C/C=C(\C)CC/C=C(\C)CC/C=C(\C)CC/C=C(\C)CC/C=C(\C)CC/C=C(\C)CC/C=C(\C)CC/C=C(\C)CC/C=C(\C)CCC=C(C)C)=C(C)C1=O` [Q10, Coenzyme Q10] was tested, and the “Hif1 alpha protein levels” value (Hif1 alpha; mitochondrial preparations of cancer cells) was “decreased Hif1 alpha protein levels”, the Hif1a lower band (Hif1 alpha; whole cell lysates of normal cells) was “showed a decrease as well” and the LDH expression ([1]; cancer) was “reduced Lactate Dehydrogenase (LDH) expression in cancer”. For the same compound, the LDH expression ([1]; normal cells) was “minimal effect on normal cells”.
